Data from the NIST ThermoML archive (doi:10.1016/j.fluid.2012.10.002).
“And” between values parts separate entries of the source, which are not always exact repeats. Identical values can stand only once.

Assay: xn = mol fraction of the nth substance listed
Conditions: Gas, Frequency=0.05 MHz, Linear variable-path acoustic interferometer

FC(F)(F)C(F)(F)F [hexafluoroethane] + FC(F)(F)C(F)(F)C(F)(F)F
x1 = 1
Conditions	speed of sound [m/s]
261.1 K, 183 kPa	127.95
263.74 K, 185 kPa	128.64
266.3 K, 186 kPa	129.3
268.82 K, 188 kPa	129.95
270.22 K, 189 kPa	130.3
271.26 K, 190 kPa	130.57
273.89 K, 192 kPa	131.26
276.33 K, 194 kPa	131.87
278.84 K, 195 kPa	132.51
281.3 K, 197 kPa	133.11
281.31 K, 197 kPa	133.1
283.84 K, 199 kPa	133.77
286.31 K, 201 kPa	134.35
288.82 K, 203 kPa	135
293.64 K, 206 kPa	136.18
296.91 K, 208 kPa	136.93
301.03 K, 212 kPa	137.94
303.69 K, 213 kPa	138.56
306.24 K, 215 kPa	139.22
308.82 K, 217 kPa	139.82
311.28 K, 219 kPa	140.41
313.79 K, 221 kPa	141
318.78 K, 224 kPa	142.17
323.78 K, 228 kPa	143.37

FC(F)(F)C(F)(F)C(F)(F)F [octafluoropropane] + FC(F)(F)C(F)(F)F
Conditions	speed of sound
258.87 K, 181 kPa, x2 = 0	104.06 m/s
261.04 K, 214 kPa, x2 = 0.146	106.6 m/s
261.17 K, 183 kPa, x2 = 0	104.66 m/s
263.69 K, 217 kPa, x2 = 0.146	107.31 m/s
266.22 K, 219 kPa, x2 = 0.146	107.96 m/s
268.73 K, 189 kPa, x2 = 0	106.57 m/s
268.76 K, 222 kPa, x2 = 0.146	108.61 m/s
270.28 K, 190 kPa, x2 = 0	106.94 m/s
271.52 K, 214 kPa, x2 = 0.11	108.77 m/s
271.54 K, 224 kPa, x2 = 0.146	109.31 m/s
273.74 K, 193 kPa, x2 = 0	107.79 m/s
273.82 K, 227 kPa, x2 = 0.146	109.89 m/s
273.86 K, 202 kPa, x2 = 0.048	108.5 m/s
273.88 K, 216 kPa, x2 = 0.11	109.36 m/s
273.9 K, 216 kPa, x2 = 0.11	109.35 m/s
276.23 K, 195 kPa, x2 = 0	108.4 m/s
276.3 K, 219 kPa, x2 = 0.11	109.94 m/s
276.35 K, 229 kPa, x2 = 0.146	110.52 m/s
278.61 K, 206 kPa, x2 = 0.048	109.65 m/s
278.75 K, 197 kPa, x2 = 0	109 m/s
279.06 K, 231 kPa, x2 = 0.146	111.21 m/s
281.01 K, 208 kPa, x2 = 0.048	110.21 m/s
281.09 K, 223 kPa, x2 = 0.11	111.13 m/s
281.24 K, 199 kPa, x2 = 0	109.59 m/s
281.35 K, 233 kPa, x2 = 0.146	111.76 m/s
281.94 K, 224 kPa, x2 = 0.11	111.33 m/s
283.42 K, 225 kPa, x2 = 0.11	111.69 m/s
283.48 K, 210 kPa, x2 = 0.048	110.83 m/s
283.81 K, 201 kPa, x2 = 0	110.19 m/s
284.05 K, 236 kPa, x2 = 0.146	112.44 m/s
285.85 K, 212 kPa, x2 = 0.048	111.38 m/s
285.87 K, 212 kPa, x2 = 0.048	111.39 m/s
285.92 K, 227 kPa, x2 = 0.11	112.29 m/s
286.31 K, 203 kPa, x2 = 0	110.78 m/s
286.39 K, 238 kPa, x2 = 0.146	112.99 m/s
288.79 K, 205 kPa, x2 = 0	111.35 m/s
288.96 K, 241 kPa, x2 = 0.146	113.61 m/s
290.79 K, 231 kPa, x2 = 0.11	113.46 m/s
291.2 K, 207 kPa, x2 = 0	111.92 m/s
291.22 K, 217 kPa, x2 = 0.048	112.64 m/s
291.37 K, 243 kPa, x2 = 0.146	114.18 m/s
293.19 K, 218 kPa, x2 = 0.048	113.11 m/s
293.86 K, 245 kPa, x2 = 0.146	114.77 m/s
294.01 K, 245 kPa, x2 = 0.146	114.81 m/s
294.82 K, 246 kPa, x2 = 0.146	115.01 m/s
294.96 K, 235 kPa, x2 = 0.11	114.43 m/s
295.16 K, 235 kPa, x2 = 0.11	114.49 m/s
295.22 K, 220 kPa, x2 = 0.048	113.57 m/s
295.26 K, 210 kPa, x2 = 0	112.82 m/s
295.26 K, 220 kPa, x2 = 0.048	113.58 m/s
295.28 K, 220 kPa, x2 = 0.048	113.59 m/s
296.26 K, 247 kPa, x2 = 0.146	115.34 m/s
297.13 K, 248 kPa, x2 = 0.146	115.54 m/s and 115.55 m/s
298.69 K, 250 kPa, x2 = 0.146	115.9 m/s
300.46 K, 224 kPa, x2 = 0.048	114.77 m/s
301.15 K, 215 kPa, x2 = 0	114.22 m/s
301.17 K, 252 kPa, x2 = 0.146	116.47 m/s
302.82 K, 226 kPa, x2 = 0.048	115.32 m/s
302.91 K, 242 kPa, x2 = 0.11	116.26 m/s
303.66 K, 254 kPa, x2 = 0.146	117.06 m/s
303.67 K, 216 kPa, x2 = 0	114.79 m/s
303.69 K, 217 kPa, x2 = 0	114.78 m/s
306.23 K, 219 kPa, x2 = 0	115.37 m/s
307.6 K, 230 kPa, x2 = 0.048	116.4 m/s
308.64 K, 259 kPa, x2 = 0.146	118.2 m/s
311.15 K, 261 kPa, x2 = 0.146	118.77 m/s
311.27 K, 223 kPa, x2 = 0	116.48 m/s
312.3 K, 234 kPa, x2 = 0.048	117.45 m/s
312.47 K, 251 kPa, x2 = 0.11	118.45 m/s
313.65 K, 264 kPa, x2 = 0.146	119.34 m/s
314.99 K, 253 kPa, x2 = 0.11	119.04 m/s
315.91 K, 237 kPa, x2 = 0.048	118.26 m/s
316.18 K, 266 kPa, x2 = 0.146	119.91 m/s
316.26 K, 226 kPa, x2 = 0	117.58 m/s
317.39 K, 255 kPa, x2 = 0.11	119.56 m/s
318.68 K, 268 kPa, x2 = 0.146	120.47 m/s
319.74 K, 257 kPa, x2 = 0.11	120.07 m/s
321.23 K, 230 kPa, x2 = 0	118.64 m/s
322.15 K, 259 kPa, x2 = 0.11	120.6 m/s
323.51 K, 273 kPa, x2 = 0.146	121.55 m/s
323.74 K, 232 kPa, x2 = 0	119.18 m/s
